Laboratory results reported in paper PMC8047873, “An antibiotic-resistance conferring mutation in a neisserial porin: Structure, ion flux, and ampicillin binding” (Biochimica et Biophysica Acta. Biomembranes, 2021).

Target: T1, PorB (wt PorB) (Neisseria meningitidis, UniProt M4GGR4)
T1 construct: outer membrane porin, homotrimer, purified in LDAO and inserted in planar lipid bilayers or liposomes; about 340 residues; expression as described previously
Assay: single-channel electrophysiology, planar black lipid membrane, JULES idealization
Assay type: binding
Conditions: +80 mV, 1 M KCl, 10 mM HEPES, pH 7.5; DPhPC/cholesterol 9:1; pore block

T1 sequence (M4GGR4 entry or part of it): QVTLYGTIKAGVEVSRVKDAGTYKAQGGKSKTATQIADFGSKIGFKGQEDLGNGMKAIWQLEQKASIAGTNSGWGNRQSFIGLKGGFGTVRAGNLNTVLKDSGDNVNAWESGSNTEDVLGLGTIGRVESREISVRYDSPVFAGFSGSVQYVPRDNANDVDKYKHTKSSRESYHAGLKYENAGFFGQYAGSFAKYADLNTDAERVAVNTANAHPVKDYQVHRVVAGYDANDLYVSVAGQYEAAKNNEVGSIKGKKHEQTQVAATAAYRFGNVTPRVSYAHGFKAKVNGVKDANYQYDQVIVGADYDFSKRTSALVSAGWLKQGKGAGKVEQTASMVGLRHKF

Compound: CC1(C)S[C@@H]2[C@H](NC(=O)[C@H](N)c3ccccc3)C(=O)N2[C@H]1C(=O)O [ampicillin]
- residence time τR: 35 ± 1 μs
